Laboratory results published in patent US20210024542A1 (Torcept Therapeutics, Inc., priority 2018, published 2021).

Key:
SK-NEP-1 = experiment: OncoPanel cell proliferation assay, SK-NEP-1; details: for Relative cell count (%) Mean: SK-NEP-1
Description: (§6) Cells were seeded into 384-well plates and incubated in a humidified atmosphere of 5% CO2 at 37° C. Compounds were added the day following cell seeding. At the same time, a time zero untreated cell plate was generated. After a 3-day incubation period, cells were fixed and stained to allow fluorescence imaging of nuclei. Compounds (1 mM stock solutions) were serially diluted in half-log steps from the highest test concentration (1 micromol), and assayed over 10 concentrations with a maximum assay concentration of 0.1% DMSO. Automated fluorescence microscopy was carried out using a Molecular Devices ImageXpress Micro XL high-content imager, and images were collected with a 4× objective. 16-bit TIFF images were acquired and analyzed with MetaXpress 5.1.0.41 software.
(§7) GI50 is the concentration needed to reduce the observed growth by half (midway between the curve maximum and the time zero value). […] In rare instances, values <0 or >10 may be observed. […] Curve-fitting, calculations, and report generation was performed using a custom data reduction engine and MathIQ based software (AIM).

CEM-C1 = experiment: OncoPanel cell proliferation assay, CEM-C1; assay type: cell-based, human; details: for Relative cell count (%) Mean: CEM-C1
Description: (§1) Cells were grown in RPMI 1640, 10% FBS, 2 mM L-alanyl-L-glutamine, 1 mM Na pyruvate, or a special medium. Cells were seeded into 384-well plates and incubated in a humidified atmosphere of 5% CO2 at 37° C. Compounds were added the day following cell seeding. At the same time, a time zero untreated cell plate was generated. After a 3-day incubation period, cells were fixed and stained to allow fluorescence imaging of nuclei. Compounds (1 mM stock solutions) were serially diluted in half-log steps from the highest test concentration ([…]), and assayed over 10 concentrations with a maximum assay concentration of 0.1% DMSO. Automated fluorescence microscopy was carried out using a Molecular Devices ImageXpress Micro XL high-content imager, and images were collected with a 4× objective. 16-bit TIFF images were acquired and analyzed with MetaXpress 5.1.0.41 software.
(§2) Cell proliferation was measured by the fluorescence intensity of an incorporated nuclear dye. The output is referred to as the relative cell count, where the measured nuclear intensity is transformed to percent of control (POC) using the following formula: […]
(§3) Cellular response parameters were calculated using nonlinear regression to a sigmoidal single-site dose response model:
(§4) Where y is a response measured at concentration x, A and B are the lower and upper limits of the response, C is the concentration at the response midpoint (EC50), and D is the Hill Slope (Ref. 1).
(§5) EC50 is the test compound concentration at the curve inflection point or half the effective response (parameter C of the fitted curve solution). GI50 is the concentration needed to reduce the observed growth by half (midway between the curve maximum and the time zero value). “Cell Count Activity Area” is an estimate of the integrated area above the curve (Barretina, et al. The Cancer Cell Line Encyclopedia enables predictive modelling of anticancer drug sensitivity. Nature 483: 603-607). […] In rare instances, values <0 or >10 may be observed. […] Curve-fitting, calculations, and report generation was performed using a custom data reduction engine and MathIQ based software (AIM).

SW579 = experiment: OncoPanel cell proliferation assay, SW579; assay type: cell-based, human; details: for Relative cell count (%) Mean: SW579
Description: as §1, §2, §3, §4, §5

CAMA-1 = experiment: OncoPanel cell proliferation assay, CAMA-1; details: for Relative cell count (%) Mean: CAMA-1
Description: as §6, §7

U-87 MG = experiment: OncoPanel cell proliferation assay, U-87 MG; assay type: cell-based, human
Description: as §1, §2, §3, §4, §5

786-O = experiment: OncoPanel cell proliferation assay, 786-O; assay type: cell-based, human; details: for Relative cell count (%) Mean: 786-0
Description: as §1, §2, §3, §4, §5

CHP-212 = experiment: OncoPanel cell proliferation assay, CHP-212; details: for Relative cell count (%) Mean: CHP-212
Description: as §6, §7

Compound: CO[C@H]1C[C@@H]2CC[C@@H](C)[C@@](O)(O2)C(=O)C(=O)N2CCCC[C@H]2C(=O)O[C@H]([C@H](C)C[C@@H]2C[C@@H]3C[C@H]2C[C@H]3O)CC(=O)[C@H](C)/C=C(\C)[C@@H](O)[C@@H](OC)C(=O)[C@H](C)C[C@H](C)/C=C/C=C/C=C/1C [Formula I, 37R-hydroxynorbornylrapamycin]
- EC50 (SK-NEP-1; Homo sapiens, SK-NEP-1, 72 h, read-out: Cell Count EC50): 0.706 nM
- GI50 (SK-NEP-1; Homo sapiens, SK-NEP-1, 72 h, read-out: Cell Count GI50): 0.747 nM
- IC50 (SK-NEP-1; Homo sapiens, SK-NEP-1, 72 h, read-out: Cell Count IC50): 2.42 nM
- Cell Count Activity Area (SK-NEP-1; SK-NEP-1, scale 0-10): 4.35
- Relative cell count (%) Mean (SK-NEP-1; 1.00E+00 microM): 35.6%
- Relative cell count (%) Mean (SK-NEP-1; 1.00E−01 microM): 38.6%
- Relative cell count (%) Mean (SK-NEP-1; 1.00E−02 microM): 45.3%
- Relative cell count (%) Mean (SK-NEP-1; 1.00E−03 microM): 63.5%
- Relative cell count (%) Mean (SK-NEP-1; 1.01E−04 microM): 100.0%
- Relative cell count (%) Mean (SK-NEP-1; 3.16E−01 microM): 35.6%
- Relative cell count (%) Mean (SK-NEP-1; 3.17E−02 microM): 40.0%
- Relative cell count (%) Mean (SK-NEP-1; 3.17E−03 microM): 48.8%
- Relative cell count (%) Mean (SK-NEP-1; 3.18E−04 microM): 83.9%
- Relative cell count (%) Mean (SK-NEP-1; 3.18E−05 microM): 99.4%
- Cell Count Activity Area (CEM-C1; CEM-C1, scale 0-10): 3.52
- Relative cell count (%) Mean (CEM-C1; 1.00E+00 microM): 47.1%
- Relative cell count (%) Mean (CEM-C1; 1.00E−01 microM): 53.2%
- Relative cell count (%) Mean (CEM-C1; 1.00E−02 microM): 58.4%
- Relative cell count (%) Mean (CEM-C1; 1.00E−03 microM): 68.7%
- Relative cell count (%) Mean (CEM-C1; 1.01E−04 microM): 90.0%
- Relative cell count (%) Mean (CEM-C1; 3.16E−01 microM): 48.9%
- Relative cell count (%) Mean (CEM-C1; 3.17E−02 microM): 53.1%
- Relative cell count (%) Mean (CEM-C1; 3.17E−03 microM): 62.4%
- Relative cell count (%) Mean (CEM-C1; 3.18E−04 microM): 72.7%
- Relative cell count (%) Mean (CEM-C1; 3.18E−05 microM): 94.0%
- EC50 (CEM-C1; Homo sapiens, 72 h, CEM-C1, 3-day incubation, read-out: Cell Count EC50): 0.5 nM
- GI50 (CEM-C1; Homo sapiens, 72 h, CEM-C1, 3-day incubation, read-out: Cell Count GI50): 10.2 nM
- IC50 (CEM-C1; Homo sapiens, 72 h, CEM-C1, 3-day incubation, read-out: Cell Count IC50): 391 nM
- EC50 (SW579; Homo sapiens, 72 h, SW579, 3-day incubation, read-out: Cell Count EC50): 0.0616 nM
- GI50 (SW579; Homo sapiens, 72 h, SW579, 3-day incubation, read-out: Cell Count GI50): 0.152 nM
- IC50 (SW579; Homo sapiens, 72 h, SW579, 3-day incubation, read-out: Cell Count IC50): 0.367 nM
- Cell Count Activity Area (SW579; SW579, scale 0-10): 5.31
- Relative cell count (%) Mean (SW579; 1.00E+00 microM): 35.3%
- Relative cell count (%) Mean (SW579; 1.00E−01 microM): 35.8%
- Relative cell count (%) Mean (SW579; 1.00E−02 microM): 42.8%
- Relative cell count (%) Mean (SW579; 1.00E−03 microM): 44.2%
- Relative cell count (%) Mean (SW579; 1.01E−04 microM): 63.2%
- Relative cell count (%) Mean (SW579; 3.16E−01 microM): 37.9%
- Relative cell count (%) Mean (SW579; 3.17E−02 microM): 38.4%
- Relative cell count (%) Mean (SW579; 3.17E−03 microM): 44.6%
- Relative cell count (%) Mean (SW579; 3.18E−04 microM): 48.4%
- Relative cell count (%) Mean (SW579; 3.18E−05 microM): 78.0%
- Cell Count Activity Area (CAMA-1; CAMA-1, scale 0-10): 4.42
- Relative cell count (%) Mean (CAMA-1; 1.00E+00 microM): 44.1%
- Relative cell count (%) Mean (CAMA-1; 1.00E−01 microM): 45.8%
- Relative cell count (%) Mean (CAMA-1; 1.00E−02 microM): 51.2%
- Relative cell count (%) Mean (CAMA-1; 1.00E−03 microM): 53.9%
- Relative cell count (%) Mean (CAMA-1; 1.01E−04 microM): 86.0%
- Relative cell count (%) Mean (CAMA-1; 3.16E−01 microM): 46.2%
- Relative cell count (%) Mean (CAMA-1; 3.17E−02 microM): 48.8%
- Relative cell count (%) Mean (CAMA-1; 3.17E−03 microM): 50.2%
- Relative cell count (%) Mean (CAMA-1; 3.18E−04 microM): 66.1%
- Relative cell count (%) Mean (CAMA-1; 3.18E−05 microM): 97.5%
- EC50 (CAMA-1; Homo sapiens, CAMA-1, 72 h, read-out: Cell Count EC50): 0.174 nM
- GI50 (CAMA-1; Homo sapiens, CAMA-1, 72 h, read-out: Cell Count GI50): 0.239 nM
- IC50 (CAMA-1; Homo sapiens, CAMA-1, 72 h, read-out: Cell Count IC50): 1.28 nM
- Relative cell count (%) Mean (U-87 MG; 1.00E+00 microM): 51.2%
- Relative cell count (%) Mean (U-87 MG; 1.00E−01 microM): 54.5%
- Relative cell count (%) Mean (U-87 MG; 1.00E−02 microM): 54.7%
- Relative cell count (%) Mean (U-87 MG; 1.00E−03 microM): 64.8%
- Relative cell count (%) Mean (U-87 MG; 1.01E−04 microM): 87.3%
- Relative cell count (%) Mean (U-87 MG; 3.16E−01 microM): 51.6%
- Relative cell count (%) Mean (U-87 MG; 3.17E−02 microM): 50.4%
- Relative cell count (%) Mean (U-87 MG; 3.17E−03 microM): 58.9%
- Relative cell count (%) Mean (U-87 MG; 3.18E−04 microM): 71.8%
- Relative cell count (%) Mean (U-87 MG; 3.18E−05 microM): 93.7%
- EC50 (U-87 MG; Homo sapiens, 72 h, 3-day incubation, read-out: Cell Count EC50): 0.206 nM
- GI50 (U-87 MG; Homo sapiens, 72 h, 3-day incubation, read-out: Cell Count GI50): 0.509 nM
- IC50 (U-87 MG; Homo sapiens, 72 h, 3-day incubation, read-out: Cell Count IC50): 48.8 nM
- Cell Count Activity Area (U-87 MG; scale 0-10): 3.92
- Relative cell count (%) Mean (786-O; 1.00E+00 microM): 37.4%
- Relative cell count (%) Mean (786-O; 1.00E−01 microM): 44.8%
- Relative cell count (%) Mean (786-O; 1.00E−02 microM): 52.1%
- Relative cell count (%) Mean (786-O; 1.00E−03 microM): 61.1%
- Relative cell count (%) Mean (786-O; 1.01E−04 microM): 88.5%
- Relative cell count (%) Mean (786-O; 3.16E−01 microM): 43.9%
- Relative cell count (%) Mean (786-O; 3.17E−02 microM): 46.5%
- Relative cell count (%) Mean (786-O; 3.17E−03 microM): 60.0%
- Relative cell count (%) Mean (786-O; 3.18E−04 microM): 77.4%
- Relative cell count (%) Mean (786-O; 3.18E−05 microM): 100.6%
- Cell Count Activity Area (786-O; 786-O, scale 0-10): 4.43
- EC50 (786-O; Homo sapiens, 786-0, 72 h, 786-O, 3-day incubation, read-out: Cell Count EC50): 0.395 nM
- GI50 (786-O; Homo sapiens, 786-0, 72 h, 786-O, 3-day incubation, read-out: Cell Count GI50): 1.91 nM
- IC50 (786-O; Homo sapiens, 786-0, 72 h, 786-O, 3-day incubation, read-out: Cell Count IC50): 4.07 nM
- Cell Count Activity Area (CHP-212; CHP-212, scale 0-10): 3.70
- Relative cell count (%) Mean (CHP-212; 1.00E−01 microM): 49.6%
- Relative cell count (%) Mean (CHP-212; 1.00E−02 microM): 52.8%
- Relative cell count (%) Mean (CHP-212; 1.00E−03 microM): 56.6%
- Relative cell count (%) Mean (CHP-212; 1.01E−04 microM): 70.6%
- Relative cell count (%) Mean (CHP-212; 3.16E−01 microM): 45.9%
- Relative cell count (%) Mean (CHP-212; 3.17E−02 microM): 49.0%
